In ChEMBL document CHEMBL4613311, “Synthesis of Novel G Factor or Chloroquine-Artemisinin Hybrids and Conjugates with Potent Antiplasmodial Activity” (ACS Med Chem Lett, 2020):

Legend:
Plasmodium falciparum [1] = test: Antiplasmodial activity against chloroquine resistant Plasmodium falciparum FcB1/Columbia infected in human erythrocytes preincubated for 24 hrs followed by [3H]-hypoxanthine addition and measured after 24 hrs by liquid scintillation analysis; format: functional, organism-based
[2] = Selectivity index, ratio of IC50 for human AB943 cells to IC50 for antiplasmodial activity against chloroquine resistant Plasmodium falciparum FcB1/Colombia infected in human erythrocytes; format: toxicity, cell-based; details: read-out: Ratio IC50
Plasmodium falciparum [3] = test: Antiplasmodial activity against chloroquine resistant Plasmodium falciparum FcB1/Columbia infected in human erythrocytes at 10 nM preincubated for 24 hrs followed by [3H]-hypoxanthine addition and measured after 24 hrs by liquid scintillation analysis relative to control; format: functional

COC12OOC3(C=C1C(=O)C(C)(C)C(=O)C2(C)C)CCN(C(=O)CCC(=O)NCCCCN(CCCNC(=O)CCC(=O)N1CCC2(C=C4C(=O)C(C)(C)C(=O)C(C)(C)C4(OC)OO2)CC1)C(=O)CCC(=O)NCCNc1ccnc2cc(Cl)ccc12)CC3 (stereo not drawn)
IC50 (Plasmodium falciparum [1]): > 167 nM

COC12OOC3(C=C1C(=O)C(C)(C)C(=O)C2(C)C)CCN(C(=O)CCC(=O)N(CCCCNC(=O)CC[C@H]1O[C@@H]2O[C@@]4(C)CC[C@H]5[C@H](C)CC[C@@H]([C@H]1C)[C@@]25OO4)CCCCNC(=O)CC[C@H]1O[C@@H]2O[C@@]4(C)CC[C@H]5[C@H](C)CC[C@@H]([C@H]1C)[C@@]25OO4)CC3 (stereo partly drawn)
IC50 (Plasmodium falciparum [1]): 10.6 nM
selectivity ratio [2]: 983

COC12OOC3(C=C1C(=O)C(C)(C)C(=O)C2(C)C)CCNCC3 (stereo not drawn)
IC50 (Plasmodium falciparum [1]): > 250 nM

C[C@H]1[C@@H](CCC(=O)NCCNc2ccnc3cc(Cl)ccc23)O[C@@H]2O[C@@]3(C)CC[C@H]4[C@H](C)CC[C@@H]1[C@@]24OO3
inhibition at 0.01 µM (Plasmodium falciparum [3]): 11%

COC12OOC3(C=C1C(=O)C(C)(C)C(=O)C2(C)C)CCN(C(=O)CCC(=O)N(CCCCNC(=O)CC[C@H]1O[C@@H]2O[C@@]4(C)CC[C@H]5[C@H](C)CC[C@@H]([C@H]1C)[C@@]25OO4)CCCNC(=O)CC[C@H]1O[C@@H]2O[C@@]4(C)CC[C@H]5[C@H](C)CC[C@@H]([C@H]1C)[C@@]25OO4)CC3 (stereo partly drawn)
IC50 (Plasmodium falciparum [1]): 8.4 nM
selectivity ratio [2]: 2110

C[C@H]1[C@@H](CCC(=O)NCCCCN(CCCCNC(=O)CC[C@H]2O[C@@H]3O[C@@]4(C)CC[C@H]5[C@H](C)CC[C@@H]([C@H]2C)[C@@]35OO4)C(=O)CCC(=O)NCCNc2ccnc3cc(Cl)ccc23)O[C@@H]2O[C@@]3(C)CC[C@H]4[C@H](C)CC[C@@H]1[C@@]24OO3
IC50 (Plasmodium falciparum [1]): 52.3 nM
selectivity ratio [2]: 328

C[C@H]1[C@@H](CCC(=O)NCCCCN(CCCNC(=O)CC[C@H]2O[C@@H]3O[C@@]4(C)CC[C@H]5[C@H](C)CC[C@@H]([C@H]2C)[C@@]35OO4)C(=O)CCC(=O)NCCNc2ccnc3cc(Cl)ccc23)O[C@@H]2O[C@@]3(C)CC[C@H]4[C@H](C)CC[C@@H]1[C@@]24OO3
inhibition at 0.01 µM (Plasmodium falciparum [3]): 33%

COC12OOC3(C=C1C(=O)C(C)(C)C(=O)C2(C)C)CCN(C(=O)CCC(=O)NCC[C@H]1O[C@@H]2O[C@@]4(C)CC[C@H]5[C@H](C)CC[C@@H]([C@H]1C)[C@@]25OO4)CC3 (stereo partly drawn)
IC50 (Plasmodium falciparum [1]): 124 nM
selectivity ratio [2]: 144

C[C@H]1[C@@H](CCC(=O)N2CCN(c3ccnc4cc(Cl)ccc34)CC2)O[C@@H]2O[C@@]3(C)CC[C@H]4[C@H](C)CC[C@@H]1[C@@]24OO3
inhibition at 0.01 µM (Plasmodium falciparum [3]): 11%

COC12OOC3(C=C1C(=O)C(C)(C)C(=O)C2(C)C)CCN(C(=O)CC[C@H]1O[C@@H]2O[C@@]4(C)CC[C@H]5[C@H](C)CC[C@@H]([C@H]1C)[C@@]25OO4)CC3 (stereo partly drawn)
IC50 (Plasmodium falciparum [1]): 2.6 nM
selectivity ratio [2]: 16400

COC12OOC3(C=C1C(=O)C(C)(C)C(=O)C2(C)C)CCN(C(=O)CCC(=O)NCCCCN(CCCCNC(=O)CCC(=O)N1CCC2(C=C4C(=O)C(C)(C)C(=O)C(C)(C)C4(OC)OO2)CC1)C(=O)CCC(=O)NCCNc1ccnc2cc(Cl)ccc12)CC3 (stereo not drawn)
IC50 (Plasmodium falciparum [1]): > 167 nM

C[C@@H]1CC[C@H]2[C@@H](C)C(=O)O[C@@H]3O[C@@]4(C)CC[C@@H]1[C@]32OO4 [ARTEMISININ]
IC50 (Plasmodium falciparum [1]): 55 nM
selectivity ratio [2]: > 4540
